In patent US5695970A, “Glucan lyase producing 1,5-anhydrofructose” (priority 1992, dated 1997):
Entries after “also recorded” stand apart in the source; their conditions may differ.

Experiments:
α-1,4-glucan lyase [1] = experiment: Elution of α-1,4-glucan lyase from the starch column by glucans; assay type: binding, Gracilariopsis lemaneiformis; conditions: glucan 8 mg ml^-1; column 1 ml, 5 ml eluate; recovery with amylopectin = 100%
Procedure: In these experiments, as much as 5 times of the column volume was collected. At high pH, for example, 50 mM bicine-NaOH (pH 8.2), the binding of the enzyme onto the starch column was loose and it was eluted by subsequent washing with the same buffer. Neither ConA-Sepharose nor cycloheptaamylose-Sepharose 6B was effective for the purification of the enzyme because of low recovery.
The efficiency of various glucans (8 mg ml^-1) on the elution of
α-1,4-glucan lyase from the starch column. The column volume
was 1 ml and 5 ml eluate was pooled. The recovery of
α-1,4-glucan lyase eluted by amylopectin was used as 100%.
Gracilariopsis lemaneiformis (originally collected from China), 30 g, was sampled directly from the culture cylinder and was rinsed briefly with deionized water and blotted dry with paper tissue. The following operations were carried out at 0°-4° C. The thalli were cut to pieces with scissors and pulverized under liquid nitrogen. To 1 g alga powder was added 3 volumes of buffer A (50 mM citrate-NaOH, pH 6.6), filtered through two-layer cloth and centrifuged at 36,600×g for 10 min. The supernatant (cell-free extract) was loaded onto a starch column (4.1×1.5 cm) pre-equilibrated with buffer A. After loading, the column was extensively washed with 4 volumes of buffer A, volumes of buffer A containing 1M NaCl, 1 volume of buffer A, 1 volume of buffer B (50 mM imidazole-HCl, pH 6.6) in a flow speed of 24 ml h^-1. α-1,4-Glucan lyase was eluted with buffer B containing 10 mg ml^-1 amylopectin in a fraction size of 3.5 ml. To separate α-1,4-glucan lyase from the amylopectin, the active fractions of the eluate were pooled and applied onto a Q-Sepharose column (2.6×5 cm). The column was pre-equilibrated and later washed with buffer B. α-1,4-Glucan lyase was eluted with buffer B containing 0.7M NaCl. Active fractions were pooled and concentrated on a Centriprep CP30 (Amicon, USA) with a molecule weight cutoff of 30,000 and applied to a Sephacryl S-200 column (2.6×80 cm) pre-equilibrated and eluted with buffer A containing 0.2M NaCl. The flow speed was 60 ml h^-1 with a fraction size of 3.5 ml per tube. Active fractions were collected and concentrated again by using centriprep CP30.

α-1,4-glucan lyase [2] = experiment: Reaction mode: complete degradation of substrates by the lyase and final products; assay type: biochemical, Gracilariopsis lemaneiformis; conditions: for time needed for a complete degradation: enzyme 6 μg protein per ml, 30° C.
Procedure: In an enzyme concentration of 6 μg protein per ml, at 30° C., the time needed for a complete degradation of 1% maltose solution was 1 h, for 2% maltose solution, 3 h, for 5% maltose solution, 10-24 h, for 2% maltoheptaose, 10-24 h. This is in sharp contrast to many polysaccharides' depolymerization enzymes, whose reaction stops with the accumulation of products or with the decrease in substrate size.
When maltoheptaose was used as a substrate, the final products are 1,5-anhydrofructose and glucose and their ratio is 6:1. The intermediate products are a mixture of maltosaccharides with a DP number between 2-6 during the process of the reaction. With the increase of reaction time, the DP number of the maltosaccharides decreased and finally all the maltosaccharides disappeared. When maltose was used as a substrate, the ratio of 1,5-anhydrofructose to glucose was 1:1. With the increase of DP number, the yield of glucose decreased, while the yield of 1,5-anhydrofructose increased. When a linear chain of a α-1,4-glucan is long enough, the yield of 1,5-anhydrofructose can be nearly 100%.

α-1,4-glucan lyase [3] = experiment: Inhibition studies of α-1,4-glucan lyase activity; assay type: biochemical, Gracilariopsis lemaneiformis; conditions: for inhibition of enzymic activity: 0.1M; for inhibition of the degradation of maltose: 3 mg/ml polysaccharide
Procedure: (§1) The reaction mixture for the assay of α-1,4-glucan lyase was composed of 240 μl 62.5 mM Mops-NaOH containing 6 mg soluble starch (pH 6.2), the enzyme preparation and distilled water to a final volume of 300 μl. The reaction was carried out at 30° C. for 10-30 min. Liberated 1,5-anhydrofructose was determined by monitoring the absorbance at 546 nm after the addition of 3,5-dinitrosalicylic acid reagent. Soluble starch in the reaction mixture may be replaced by other substrates and the final substrate concentration may be varied as indicated in the text. The reaction time and enzyme concentration used in enzyme activity assay have been chosen to ensure the linearity of the reaction rate. One unit of α-1,4-glucan lyase activity is defined as the amount of enzyme which liberates 1μmol of 1,5-anhydrofructose min^-1 under the conditions described above.

α-1,4-glucan lyase [4] = experiment: Substrate specificity of α-1,4-glucan lyase (release of 1,5-anhydrofructose, DNS method, 15 min); assay type: biochemical, Gracilariopsis lemaneiformis; conditions: for substrate inhibition: higher substrate concentrations, 10 mg ml^-1 compared with 2 and 4 mg ml^-1
Procedure: When amylopectin was used as a substrate, the activity reached maximum 8 mg ml^-1 and then decreased slightly at 20 mg ml^-1. The same results were obtained with soluble starch and maltoheptaose. When maltotriose and maltose were used as substrates, the activity reached maximum at 2 mg ml^-1 and 6 mg ml^-1, respectively. Substrate inhibition became evident at higher concentrations, especially in the case of maltotriose. […] Generally, the inhibition degree decreased with the increase in DP number (Degree of Polymerization). When the activity measured at 10 mg ml^-1 was compared at 2 mg ml^-1 and 4 mg ml^-1, substrate inhibition could be clearly seen among the maltosaccharides of DP 3-5. In maltohexaose, the substrate inhibition was very low and was none in maltoheptaose. Among the maltosaccharides, maltotetraose and maltopentaose were the poorest substrates.
With PNPG1 (p-nitrophenyl-α-D-glucoside), the artificial substrate of α-glucosidase, reaction rate was the lowest.
Substrate Specificity of α-1,4-Glucan lyase.
The concentration of various substrates in the reaction mixture
was 10 mg ml^-1 except PNPG1, PNPG2, PNPG7, which was 2 mM.
The incubation time was 15 min. The degrading rate of maltoheptaose
was 84 μmol min^-1. mg^-1 protein.
as §1

α-1,4-glucan lyase [5] = experiment: Substrate specificity of α-1,4-glucan lyase, long term incubation (24 h), continuation of Table IV; assay type: biochemical, Gracilariopsis lemaneiformis
Procedure: The incubation time was 24 h.
as §1

[6] = substrate 10 mg ml^-1, incubation 15 min
[7] = substrate 2 mM, incubation 15 min

OC[C@H]1OC(O)[C@H](O)[C@@H](O)[C@@H]1O (some centres unmarked) [Glucose, glucose]
Elution Efficiency (α-1,4-glucan lyase [1]): 0% | conversion of monosaccharide to 1,5-anhydrofructose by the lyase (α-1,4-glucan lyase [2]): can not convert | inhibition of enzymic activity (α-1,4-glucan lyase [3]; amylopectin as substrate): no inhibition | inhibition of enzymic activity (α-1,4-glucan lyase [3]; maltose as substrate): around 22% | product inhibition: effect on enzyme reaction rate (α-1,4-glucan lyase [3]; products accumulating during the enzyme reaction): negligible effect

OC[C@H]1O[C@H](O[C@H]2[C@H](O)[C@@H](O)[C@@H](O[C@H]3[C@H](O)[C@@H](O)[C@@H](O[C@H]4[C@H](O)[C@@H](O)[C@@H](O[C@H]5[C@H](O)[C@@H](O)[C@@H](O[C@H]6[C@H](O)[C@@H](O)[C@@H](O[C@H]7[C@H](O)[C@@H](O)C(O)O[C@@H]7CO)O[C@@H]6CO)O[C@@H]5CO)O[C@@H]4CO)O[C@@H]3CO)O[C@@H]2CO)[C@H](O)[C@@H](O)[C@@H]1O (some centres unmarked) [Maltoheptaose, maltoheptaose]
Elution Efficiency (α-1,4-glucan lyase [1]): 94.3% | time needed for a complete degradation (α-1,4-glucan lyase [2]; 2% maltoheptaose): 10 to 24 h | substrate inhibition (α-1,4-glucan lyase [4]): none | Activity (% of Maltoheptaose) (α-1,4-glucan lyase [4]; [6]): 100.0% | degrading rate (α-1,4-glucan lyase [4]; [6]): 84 μmol min^-1. mg^-1 protein

OC[C@H]1O[C@H](O[C@H]2[C@H](O)[C@@H](O)[C@@H](O[C@H]3[C@H](O)[C@@H](O)[C@@H](O[C@H]4[C@H](O)[C@@H](O)[C@@H](O[C@H]5[C@H](O)[C@@H](O)[C@@H](O[C@H]6[C@H](O)[C@@H](O)C(O)O[C@@H]6CO)O[C@@H]5CO)O[C@@H]4CO)O[C@@H]3CO)O[C@@H]2CO)[C@H](O)[C@@H](O)[C@@H]1O (some centres unmarked) [Maltohexaose, maltohexaose]
substrate inhibition (α-1,4-glucan lyase [4]): very low | Activity (% of Maltoheptaose) (α-1,4-glucan lyase [4]; [6]): 74.6%

OC[C@H]1O[C@H](O[C@H]2[C@H](O)[C@@H](O)[C@@H](O[C@H]3[C@H](O)[C@@H](O)[C@@H](O[C@H]4[C@H](O)[C@@H](O)[C@@H](O[C@H]5[C@H](O)[C@@H](O)C(O)O[C@@H]5CO)O[C@@H]4CO)O[C@@H]3CO)O[C@@H]2CO)[C@H](O)[C@@H](O)[C@@H]1O (some centres unmarked) [Maltopentaose, maltopentaose]
substrate inhibition (α-1,4-glucan lyase [4]): showed substrate inhibition | Activity (% of Maltoheptaose) (α-1,4-glucan lyase [4]; [6]): 36.6%

OC[C@H]1O[C@H](O[C@H]2[C@H](O)[C@@H](O)[C@H](O)O[C@@H]2CO)[C@H](O)[C@@H](O)[C@@H]1O [Maltose, maltose]
Elution Efficiency (α-1,4-glucan lyase [1]): 56.4% | time needed for a complete degradation (α-1,4-glucan lyase [2]; 1% solution): 1 h | time needed for a complete degradation (α-1,4-glucan lyase [2]; 2% maltose solution): 3 h | time needed for a complete degradation (α-1,4-glucan lyase [2]; 5% solution): 10 to 24 h | substrate concentration at which the activity reached maximum (α-1,4-glucan lyase [4]): 6 mg/mL | substrate inhibition (α-1,4-glucan lyase [4]): showed substrate inhibition | Activity (% of Maltoheptaose) (α-1,4-glucan lyase [4]; [6]): 66.7%

OC[C@H]1O[C@H](O[C@H]2[C@H](O)[C@@H](O)[C@@H](O[C@H]3[C@H](O)[C@@H](O)[C@@H](O[C@H]4[C@H](O)[C@@H](O)C(O)O[C@@H]4CO)O[C@@H]3CO)O[C@@H]2CO)[C@H](O)[C@@H](O)[C@@H]1O (some centres unmarked) [Maltotetraose, maltotetraose]
Elution Efficiency (α-1,4-glucan lyase [1]): 65.7% | substrate inhibition (α-1,4-glucan lyase [4]): showed substrate inhibition | Activity (% of Maltoheptaose) (α-1,4-glucan lyase [4]; [6]): 27.8%

OC[C@H]1O[C@H](O[C@H]2[C@H](O)[C@@H](O)[C@@H](O[C@H]3[C@H](O)[C@@H](O)C(O)O[C@@H]3CO)O[C@@H]2CO)[C@H](O)[C@@H](O)[C@@H]1O (some centres unmarked) [Maltotriose, maltotriose]
substrate concentration at which the activity reached maximum (α-1,4-glucan lyase [4]): 2 mg/mL | substrate inhibition (α-1,4-glucan lyase [4]): showed substrate inhibition | Activity (% of Maltoheptaose) (α-1,4-glucan lyase [4]; [6]): 39.1%

O=[N+]([O-])c1ccc(O[C@H]2O[C@H](CO)[C@@H](O)[C@H](O)[C@H]2O)cc1 [PNPG1, p-nitrophenyl-α-D-glucoside]
Activity (% of Maltoheptaose) (α-1,4-glucan lyase [4]; [7]): 0.113%

O=[N+]([O-])c1ccc(O[C@H]2O[C@H](CO)[C@@H](O[C@H]3O[C@H](CO)[C@@H](O)[C@H](O)[C@H]3O)[C@H](O)[C@H]2O)cc1 [PNPG2, p-nitrophenyl-α-D-maltoside]
Activity (% of Maltoheptaose) (α-1,4-glucan lyase [4]; [7]): 22.5%

O=[N+]([O-])c1ccc(O[C@H]2O[C@H](CO)[C@@H](O[C@H]3O[C@H](CO)[C@@H](O[C@H]4O[C@H](CO)[C@@H](O[C@H]5O[C@H](CO)[C@@H](O[C@H]6O[C@H](CO)[C@@H](O[C@H]7O[C@H](CO)[C@@H](O[C@H]8O[C@H](CO)[C@@H](O)[C@H](O)[C@H]8O)[C@H](O)[C@H]7O)[C@H](O)[C@H]6O)[C@H](O)[C@H]5O)[C@H](O)[C@H]4O)[C@H](O)[C@H]3O)[C@H](O)[C@H]2O)cc1 [PNPG7, p-nitrophenyl-α-D-maltoheptaoside]
Activity (% of Maltoheptaose) (α-1,4-glucan lyase [4]; [7]): 100.0%

O=C(CO)[C@@H](O)[C@H](O)[C@H](O)CO [fructose]
conversion of monosaccharide to 1,5-anhydrofructose by the lyase (α-1,4-glucan lyase [2]): can not convert | inhibition of enzymic activity (α-1,4-glucan lyase [3]; amylopectin as substrate): no inhibition | inhibition of enzymic activity (α-1,4-glucan lyase [3]; maltose as substrate): no inhibition

OC[C@H]1OC(O)[C@H](O)[C@@H](O)[C@H]1O (some centres unmarked) [galactose]
conversion of monosaccharide to 1,5-anhydrofructose by the lyase (α-1,4-glucan lyase [2]): can not convert | inhibition of enzymic activity (α-1,4-glucan lyase [3]; amylopectin as substrate): no inhibition | inhibition of enzymic activity (α-1,4-glucan lyase [3]; maltose as substrate): no inhibition

OC[C@H]1OC(O)[C@@H](O)[C@@H](O)[C@@H]1O (some centres unmarked) [mannose]
conversion of monosaccharide to 1,5-anhydrofructose by the lyase (α-1,4-glucan lyase [2]): can not convert | inhibition of enzymic activity (α-1,4-glucan lyase [3]; amylopectin as substrate): no inhibition | inhibition of enzymic activity (α-1,4-glucan lyase [3]; maltose as substrate): no inhibition

amylopectin
Elution Efficiency (α-1,4-glucan lyase [1]): 100% | inhibition of the degradation of maltose (α-1,4-glucan lyase [3]; maltose as substrate): around 67% | type of inhibition (α-1,4-glucan lyase [3]; maltose as substrate): mixed competive/non-competive | inhibition of the algal enzyme (in words) (α-1,4-glucan lyase [3]; summary statement, maltose as substrate): inhibited | substrate concentration at which the activity reached maximum (α-1,4-glucan lyase [4]): 8 mg/mL | Activity (% of Maltoheptaose) (α-1,4-glucan lyase [4]; [6]): 94.1%

amylose
Activity (% of Maltoheptaose) (α-1,4-glucan lyase [4]; [6]): 100.4%

floridean starch
Activity (% of Maltoheptaose) (α-1,4-glucan lyase [4]; [6]): 61.9%

glycogen
Elution Efficiency (α-1,4-glucan lyase [1]): 87.1% | inhibition of the degradation of maltose (α-1,4-glucan lyase [3]; maltose as substrate): ~47% | Activity (% of Maltoheptaose) (α-1,4-glucan lyase [4]; [6]): 77.6%

pullulan
Elution Efficiency (α-1,4-glucan lyase [1]): 32.3% | inhibition of the degradation of maltose (α-1,4-glucan lyase [3]; maltose as substrate): did not inhibit | activity of the lyase with the substrate (in words) (α-1,4-glucan lyase [5]; long term incubation at 30° C.): no detectable activity; also recorded: little or no activity | Product released (α-1,4-glucan lyase [5]; substrate 4 mg ml^-1, 1.64 μg enzyme, 24 h): 0 nmol

soluble starch
Activity (% of Maltoheptaose) (α-1,4-glucan lyase [4]; [6]): 100.2%

β-limit dextrin
Activity (% of Maltoheptaose) (α-1,4-glucan lyase [4]; [6]): 22.7%
